Measured values: PubChem BioAssay AID328 (DTP/NCI, 2004)
Values joined by “and” are separate entries in the source; they are usually repeats but may differ in a detail not shown here. Identical values can stand only once. Toxic doses and inconclusive results are not listed. Rule for the calls: active = survival T/C of 150% or more; inactive = T/C below 125% in these data.

System: BDF1 mice, P388 leukemia ip, median survival T/C
Experiment: NCI In Vivo Anticancer Drug Screen. Data for tumor model P388 Leukemia (intraperitoneal) in B6D2F1 (BDF1) mice
Conditions: endpoint: median survival time, higher = longer survival
In short: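 Steps: implant the tumour, treat one group with compound and another with vehicle, record survival, then divide treated by control.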

[1] = dose: 50.0 mg/kg/injection, schedule: Q01DX009 (ip), vehicle: water
[2] = dose: 100.0 mg/kg/injection, schedule: Q01DX009 (ip), vehicle: water
[3] = dose: 100.0 mg/kg/injection, schedule: Q04DX003 (ip), vehicle: water
[4] = dose: 200.0 mg/kg/injection, schedule: Q01DX009 (ip), vehicle: water
[5] = dose: 200.0 mg/kg/injection, schedule: Q04DX003 (ip), vehicle: water
[6] = dose: 400.0 mg/kg/injection, schedule: Q01DX009 (ip), vehicle: water
[7] = dose: 400.0 mg/kg/injection, schedule: Q04DX003 (ip), vehicle: water
[8] = dose: 50.0 mg/kg/injection, schedule: Q04DX003 (ip), vehicle: saline
[9] = dose: 100.0 mg/kg/injection, schedule: Q04DX003 (ip), vehicle: saline
[10] = dose: 200.0 mg/kg/injection, schedule: Q04DX003 (ip), vehicle: saline

Measured: T/C

CC(=O)Nc1ccc(OC(=O)Nc2ccc(C)c(NC(=O)Oc3ccc(NC(C)=O)cc3)c2)cc1
inactive: dose: 50.0 mg/kg/injection, schedule: Q01DX005 (ip), vehicle: saline with Tween-80 96 % of control | dose: 100.0 mg/kg/injection, schedule: Q01DX005 (ip), vehicle: saline with Tween-80 102 % of control | dose: 200.0 mg/kg/injection, schedule: Q01DX005 (ip), vehicle: saline with Tween-80 119 % of control

CCOC(=O)CNCc1ccc(C)cc1
inactive: [1] 100 % of control | [2] 99 % of control | [3] 91 % of control | [4] 103 % of control | [5] 93 % of control | [6] 108 % of control | [7] 100 % of control

COc1cc(/C=C(/C)[N+](=O)[O-])ccc1O
inactive: dose: 12.5 mg/kg/injection, schedule: Q01DX009 (ip), vehicle: carboxymethylcellulose (CMC) 118 % of control | dose: 18.75 mg/kg/injection, schedule: Q01DX009 (ip), vehicle: Klucel (hydroxypropylcellulose) (HPC) 121 % of control | dose: 25.0 mg/kg/injection, schedule: Q01DX009 (ip), vehicle: Klucel (hydroxypropylcellulose) (HPC) 103 % of control and 112 % of control | dose: 50.0 mg/kg/injection, schedule: Q01DX009 (ip), vehicle: Klucel (hydroxypropylcellulose) (HPC) 116 % of control | dose: 50.0 mg/kg/injection, schedule: Q01DX009 (ip), vehicle: saline 122 % of control | [8] 109 % of control | dose: 100.0 mg/kg/injection, schedule: Q01DX009 (ip), vehicle: Klucel (hydroxypropylcellulose) (HPC) 114 % of control | dose: 100.0 mg/kg/injection, schedule: Q01DX009 (ip), vehicle: saline 92 % of control | [9] 113 % of control | dose: 200.0 mg/kg/injection, schedule: Q01DX009 (ip), vehicle: Klucel (hydroxypropylcellulose) (HPC) 114 % of control | dose: 200.0 mg/kg/injection, schedule: Q01DX009 (ip), vehicle: saline 122 % of control | [10] 118 % of control

CC(O)CN1CCCC1 (stereo unspecified)
inactive: [8] 91 % of control | [9] 104 % of control | [10] 104 % of control

CC(C)n1c(=S)[nH]c2ccccc2c1=O
inactive: dose: 100.0 mg/kg/injection, schedule: Q01DX001 (ip), vehicle: Klucel (hydroxypropylcellulose) (HPC) 100 % of control | dose: 200.0 mg/kg/injection, schedule: Q01DX001 (ip), vehicle: Klucel (hydroxypropylcellulose) (HPC) 100 % of control | dose: 400.0 mg/kg/injection, schedule: Q01DX001 (ip), vehicle: Klucel (hydroxypropylcellulose) (HPC) 100 % of control

COc1ccccc1NC(=O)Oc1ccc(-c2ccccc2)cc1Br
inactive: dose: 100.0 mg/kg/injection, schedule: Q04DX003 (ip), vehicle: Klucel (hydroxypropylcellulose) (HPC) 95 % of control | dose: 200.0 mg/kg/injection, schedule: Q04DX003 (ip), vehicle: Klucel (hydroxypropylcellulose) (HPC) 87 % of control | dose: 400.0 mg/kg/injection, schedule: Q04DX003 (ip), vehicle: Klucel (hydroxypropylcellulose) (HPC) 91 % of control

O=C(OC1C2C=CC(C(O)O2)C1c1ccccc1)c1ccc(Cl)cc1 (stereo unspecified)
inactive: dose: 100.0 mg/kg/injection, schedule: Q01DX001 (ip), vehicle: saline with Tween-80 94 % of control | dose: 200.0 mg/kg/injection, schedule: Q01DX001 (ip), vehicle: saline with Tween-80 92 % of control

N=C1N=C(C(F)(F)F)N=C1c1[nH]c(C(F)(F)F)nc1N
inactive: dose: 3.12 mg/kg/injection, schedule: Q01DX009 (ip), vehicle: water 105 % of control | dose: 6.25 mg/kg/injection, schedule: Q01DX009 (ip), vehicle: water 105 % of control | dose: 12.5 mg/kg/injection, schedule: Q01DX009 (ip), vehicle: water 113 % of control | dose: 25.0 mg/kg/injection, schedule: Q01DX009 (ip), vehicle: water 103 % of control and 105 % of control | dose: 25.0 mg/kg/injection, schedule: Q04DX003 (ip), vehicle: water 100 % of control | [1] 92 % of control | dose: 50.0 mg/kg/injection, schedule: Q04DX003 (ip), vehicle: water 99 % of control | [2] 106 % of control | [3] 98 % of control | [4] 97 % of control | [5] 94 % of control | [6] 104 % of control | [7] 109 % of control
